Laboratory results taken from patent US8809361B2, “2,3-dihydrofuro[2,3-c]pyridines, their use as modulators of the G-protein-coupled receptor GPR119 and pharmaceutical compositions thereof” (Boehringer Ingelheim International GmbH, priority 2012, dated 2014).

Target: T1, human GPR119 (Homo sapiens, UniProt Q8TDV5)
T1 construct: expression vector for human GPR119 cDNA (Acc. No. NP_848566); expressed in transfected cells
T1 sequence (Q8TDV5 1-335): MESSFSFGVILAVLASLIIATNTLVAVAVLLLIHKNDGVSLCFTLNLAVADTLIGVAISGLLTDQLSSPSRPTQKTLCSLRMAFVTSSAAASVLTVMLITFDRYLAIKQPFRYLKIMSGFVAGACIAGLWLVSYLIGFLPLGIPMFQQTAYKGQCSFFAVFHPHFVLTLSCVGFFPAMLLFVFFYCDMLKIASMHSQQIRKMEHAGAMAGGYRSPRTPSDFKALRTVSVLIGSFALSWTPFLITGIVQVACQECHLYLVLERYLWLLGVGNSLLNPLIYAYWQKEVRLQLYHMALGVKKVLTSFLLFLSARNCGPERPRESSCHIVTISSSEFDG
Assay: GPR119 activation / intracellular cAMP stimulation, AlphaScreen cAMP Assay in Min-6/hGPR119 cells
Type: cell-based
Conditions: MIN6 cells stably transfected with human GPR119, 45 minutes incubation at room temperature
Description: The compounds of formula I according to the invention modulate the activity of the G-protein-coupled receptor GPR119. The effect of the compounds on the activation of GPR119 and on the stimulation of intracellular cAMP concentration is determined using the AlphaScreen cAMP Assay Kit (Cat. No. #6760625R) made by PerkinElmer.
MIN6 cells [Miyazaki J et al., Endocrinology. 1990 July; 127(1):126-32] are stably transfected with an expression vector for human GPR119 cDNA (Acc. No. NP_848566). Min-6/hGPR119 cells are cultured in DMEM, 10% FBS, 50 μM β-mercaptoethanol, 0.3 mg/mL Geniticin, 2 mM GlutaMAX at 37° C., 5% CO2. For the assay, the cells are seeded in Optiplates (white, 384-well, 160W-barcoded, TC, sterile with lid, Cat. No. #6007688 (Perkin Elmer); 10000 cells/well; 50 μL). The plates covered with lids are then incubated for 24 hours at 37° C., 5% CO2. After the medium is aspirated from the wells completely, 10 ill of the test compound are added, the compounds are diluted using stimulating buffer (140 mM NaCl, 3.6 mM KCl, 0.5 mM NaH2PO4, 0.5 mM MgSO4, 1.5 mM CaCl2, 10 mM Hepes, 5 mM NaHCO3; pH 7.4. 0.5 mM IBMX and 0.1% BSA, the final DMSO concentration is 1%). After 45 minutes incubation at room temperature (approx. 20° C.), the cAMP concentrations are determined using the AlphaScreen cAMP Assay Kit (Cat. No. #6760625R from PerkinElmer).

| EC50 | Compound |
| --- | --- |
| 12 nM | CC(C)c1noc(N2CCC3(CC2)CC2(Cc4cc(C5=CCN(S(C)(=O)=O)CC5)ncc4O2)C3)n1 [Example 23, 1″-(3-Isopropyl-[1,2,4]oxadiazol-5-yl)-5-(1-methanesulfonyl-1,2,3,6-tetrahydro-pyridin-4-yl)-dispiro[2,3-dihydrofuro[2,3-c]pyridine-2,1′-cyclobutane-3′,4″-piperidine]] |
| 10 nM | CCCc1noc(N2CCC3(CC2)CC2(Cc4cc(C5=CCN(S(C)(=O)=O)CC5)ncc4O2)C3)n1 [Example 24, 5-(1-Methanesulfonyl-1,2,3,6-tetrahydro-pyridin-4-yl)-1″-(3-n-propyl-[1,2,4]oxadiazol-5-yl)-dispiro[2,3-dihydrofuro[2,3-c]pyridine-2,1′-cyclobutane-3′,4″-piperidine]] |
| 5 nM | CC(C)c1nc(N2CCC3(CC2)CC2(Cc4cc(C5=CCN(S(C)(=O)=O)CC5)ncc4O2)C3)no1 [Example 25, 1″-(5-Isopropyl-[1,2,4]oxadiazol-3-yl)-5-(1-methanesulfonyl-1,2,3,6-tetrahydro-pyridin-4-yl)-dispiro[2,3-dihydrofuro[2,3-c]pyridine-2,1′-cyclobutane-3′,4″-piperidine]] |
| 8 nM | CCCc1nc(N2CCC3(CC2)CC2(Cc4cc(C5=CCN(S(C)(=O)=O)CC5)ncc4O2)C3)no1 [Example 26, 5-(1-Methanesulfonyl-1,2,3,6-tetrahydro-pyridin-4-yl)-1″-(3-n-propyl-[1,2,4]oxadiazol-3-yl)-dispiro[2,3-dihydrofuro[2,3-c]pyridine-2,1′-cyclobutane-3′,4″-piperidine]] |
| 4 nM | C[C@H](OC(=O)N1CCC2(CC1)CC1(Cc3cc(C4=CCN(S(C)(=O)=O)CC4)ncc3O1)C2)C(F)(F)F [Example 27, 1″-[(S)-2,2,2-Trifluoro-1-methyl-ethyloxycarbonyl]-5-(1-methanesulfonyl-1,2,3,6-tetrahydro-pyridin-4-yl)-dispiro[2,3-dihydrofuro[2,3-c]pyridine-2,1′-cyclobutane-3′,4″-piperidine]] |
| 11 nM | CCc1cnc(N2CCC3(CC2)CC2(Cc4cc(C5=CCN(S(C)(=O)=O)CC5)ncc4O2)C3)nc1 [Example 28, 1″-(5-Ethyl-pyrimidin-2-yl)-5-(1-methanesulfonyl-1,2,3,6-tetrahydro-pyridin-4-yl)-dispiro[2,3-dihydrofuro[2,3-c]pyridine-2,1′-cyclobutane-3′,4″-piperidine]] |
| 6 nM | CS(=O)(=O)N1CC=C(c2cc3c(cn2)OC2(C3)CC3(CCN(c4ncc(C(F)(F)F)cn4)CC3)C2)CC1 [Example 32, 5-(1-Methanesulfonyl-1,2,3,6-tetrahydro-pyridin-4-yl)-1″-(5-trifluoromethyl-pyrimidin-2-yl)-dispiro[2,3-dihydrofuro[2,3-c]pyridine-2,1′-cyclobutane-3′,4″-piperidine]] |
| 8 nM | C[C@@H](OC(=O)N1CCC2(CC1)CC1(Cc3cc(C4=CCN(S(C)(=O)=O)CC4)ncc3O1)C2)C(F)(F)F [Example 33, 5-(1-Methanesulfonyl-1,2,3,6-tetrahydro-pyridin-4-yl)-1″-[(R)-2,2,2-trifluoro-1-methyl-ethyloxycarbonyl]-dispiro[2,3-dihydrofuro[2,3-c]pyridine-2,1′-cyclobutane-3′,4″-piperidine]] |

| Compound | EC50 |
| --- | --- |
| CC(C)(C)OC(=O)N1CCC2(CC1)CC1(Cc3cc(N4CCN(S(C)(=O)=O)CC4)ncc3O1)C2 [Example 21, 5-(4-Methanesulfonyl-piperazin-1-yl)-1″-tert-butoxycarbonyl-dispiro[2,3-dihydrofuro[2,3-c]pyridine-2,1′-cyclobutane-3′,4″-piperidine]] | 77 nM |
| CCNC(=O)c1ccc(-c2cc3c(cn2)OC2(C3)CC3(CCN(C(=O)OC(C)(C)C)CC3)C2)cc1 [Example 22, 5-(4-Ethylaminocarbonyl-phenyl)-1″-tert-butoxycarbonyl-dispiro[2,3-dihydrofuro[2,3-c]pyridine-2,1′-cyclobutane-3′,4″-piperidine]] | 28 nM |
| CSc1ccc(-c2cc3c(cn2)OC2(C3)CC3(CCN(C(=O)OC(C)(C)C)CC3)C2)c(C#N)c1 [Example 30, 5-(2-Cyano-4-methylsulfanyl-phenyl)-1″-tert-butoxycarbonyl-dispiro[2,3-dihydrofuro[2,3-c]pyridine-2,1′-cyclobutane-3′,4″-piperidine]] | 14 nM |
| CC(C)(C)OC(=O)N1CCC2(CC1)CC1(Cc3cc(-c4ccc(S(C)(=O)=O)cc4C#N)ncc3O1)C2 [Example 31, 5-(2-Cyano-4-methylsulfonyl-phenyl)-1″-tert-butoxycarbonyl-dispiro[2,3-dihydrofuro[2,3-c]pyridine-2,1′-cyclobutane-3′,4″-piperidine]] | 5 nM |
